Results on 3 molecules are retold here after patent US20100016445A1, “TRANSDERMAL DIETHYLSTILBESTROL FOR TREATING PROSTATE CANCER” (Oregon Health and Science University, priority 2006, published 2010).

For series [1] the following is noted: cited from earlier work.
For the next series, the system named is coagulation factors. The conditions noted are these: in vivo; cited from earlier work.
Series [2] is described as follows: Mouse Experiment #1: DES in mouse plasma by TSQ-ESI-MS after i.p. injection or topical DES cream. Format: in vivo. Conditions: ip, 0.75 mg, DES i.p. 0.75 mg, read-out: DES Amount in plasma. As for the experimental part: 375 mg of diethylstilbestrol (DES; Sigma, cat #D4628) was then added to 2.5 ml of the lecithin solution and combined with 10 ml of the 20% poloxamer solution. This combination was stirred overnight at room temperature. The result was a viscous 3% (g/ml) DES cream, of which 0.25 ml was applied to each mouse resulting in a topical dose of approximately 7.5 mg.
100 μl samples of commercial BALB/C mouse plasma containing the following concentrations of DES were used to produce a standard curve: 0, 0.01, 0.02, 0.05, 0.08, 0.1, 0.2, 0.5, 0.8, 1.0 (nanograms of DES per milliliter of mouse plasma). Each plasma standard was spiked with 10 μl of d8-DES (Isotech, cat #614289) used as an internal standard. Prior to the next step, samples taken from live mice were exposed to 5 μl of β-glucuronidase (Sigma, cat #G7017) and incubated at 37° C. for 70 minutes at 100 rpm. The enzymatic reaction was necessary in order to separate the DES molecule from any conjugated glucoronic acid that may be present. Following this incubation, 10 μl of 6M perchloric acid and 50 μl of acetonitrile were added. Each sample was then mixed for 2 minutes, following by centrifugation at 17,000×g for 5 minutes at 5° C. The supernatant was combined with 40 μl of 0.75M potassium carbonate and mixed for 30 seconds. Precipitated potassium perchlorate was removed by centrifugation at 17,000×g for 5 minutes at 5° C. […]

Series [3] is described as follows: Mouse Experiment #2: DES in mouse plasma by TSQ-ESI-MS after three cream applications or i.p. injection. Format: in vivo, athymic nude mice. Conditions: athymic nude, ip, DES i.p. 0.75 mg, β-glucuronidase, read-out: DES Amount in plasma. The procedure:
100 μl samples of commercial BALB/C mouse plasma containing the following concentrations of DES were used to produce a standard curve: 0, 0.01, 0.02, 0.05, 0.08, 0.1, 0.2, 0.5, 0.8, 1.0 (nanograms of DES per milliliter of mouse plasma). Each plasma standard was spiked with 10 μl of d8-DES (Isotech, cat #614289) used as an internal standard. Prior to the next step, samples taken from live mice were exposed to 5 μl of β-glucuronidase (Sigma, cat #G7017) and incubated at 37° C. for 70 minutes at 100 rpm. The enzymatic reaction was necessary in order to separate the DES molecule from any conjugated glucoronic acid that may be present. Following this incubation, 10 μl of 6M perchloric acid and 50 μl of acetonitrile were added. Each sample was then mixed for 2 minutes, following by centrifugation at 17,000×g for 5 minutes at 5° C. The supernatant was combined with 40 μl of 0.75M potassium carbonate and mixed for 30 seconds. Precipitated potassium perchlorate was removed by centrifugation at 17,000×g for 5 minutes at 5° C. The resulting supernatant was subjected to TSQ-ESI-MS. The chromatography conditions were the following: 25 μl metal loop, 10 μl no waste injection; oven 22° C.; flow rate 0.3 ml/min; solvents: A=water, C=MeOH; column: Hypersil Gold 100×2.1 mm, 5 μm bore (Thermo Scientific, catalog #25005-102130; with guard column). […]

The subject of series [4] is dihydrotestosterone and testosterone. Kind of series: Mouse Experiment #2: radioimmunoassay for androgen suppression by DES. In kind it is in vivo, athymic nude mice. The conditions noted are these: DES i.p., 1 hour (used as baseline). As for the experimental part:
Six athymic nude mice (Harlan) were used for this experiment. As above, mouse 1 received a 100 μl injection of a 7.5% DES solution in DMSO, for a total dose of […]. Mice 2, 3, 4, 5, and 6 received three applications of 0%, 0.5%, 1%, 2%, and 3% DES cream at 24 h intervals. 24 h following the final cream application and 1 h post-injection, blood was taken from each mouse by cardiac puncture. Each cardiac puncture sample was combined with 0.1 ml sodium heparin (50 mg/ml; Sigma, cat #). Blood plasma was isolated from each sample by centrifugation at 4,000 rpm for 15 minutes. This yielded approximately 0.2 to 0.4 ml of plasma from each sample.
A radioimmunoassay that detects both dihydrotestosterone and testosterone was used to assess androgen suppression by DES.

The conditions of series [5]: patients receiving 5 mg of DES per day, oral; cited from earlier work.
The test system of a further series is hot flashes. The conditions noted are these: DES 1 mg per day, cited from earlier work.
For series [6] the following is noted: oral, versus conventional ADT, non-metastatic prostate cancer; cited from earlier work.
Setting [7] is: PEP group, 915 men, median follow-up 27 months.

As for polyoestradiol phosphate [PEP], in series [1] (setting [7]), the “non-fatal cardiovascular events: heart failure” value is given as 4.4% and the “non-fatal cardiovascular events: ischemic heart disease” value is 3.7%. For the same molecule, the “cardiovascular or thromboembolic complications” value in series [1] (phase I, intramuscular, 12 patients, median 12.9 months) is reported as “did not cause any”. Moreover, in the series on coagulation factors, the “Antithrombin III activity” value is listed as “significant decrease”, the “Factor VII” value is “no change” and the Fibrinogen entry is listed as “unchanged”.

Regarding `C[C@]12CC[C@@H]3c4ccc(O)cc4CC[C@H]3[C@@H]1CC[C@@H]2O` [transdermal estradiol, estradiol], the F1.2 result in the series on coagulation factors was “did not affect”.

Turning to `CCC(=C(CC)c1ccc(O)cc1)c1ccc(O)cc1` [DES, 4-[4-(4-hydroxyphenyl)hex-3-en-3-yl]phenol], the concentration at 1 h in series [2] (no β-glucuronidase) was found to be 0.089 ng/mL; in series [2] (β-glucuronidase sample prep), 1.48 ng/mL; in series [3], 1.93 ng/mL. The “[testosterone]” value in series [4] stood at 143 pg/mlI. Moreover, in series [5], the “increase in non-cancer related deaths, mostly cardiovascular” value is reported as 36%. In the series on hot flashes (remaining patients), the “patients with significant improvement of hot flashes” value is recorded as 14%. In addition, the “patients with resolution of hot flashes” value in the series on hot flashes is 86%. Further, the “urinary N-telopeptide levels (marker for bone turnover)” value in series [6] is listed as “significantly lower”.
